# Test results reported in PubChem BioAssay AID1963436 (Molecular Pharmacology Branch, DTP, NCI, 2024).
# System: OVCAR-5 complex spheroid (HUVEC/MSC), viability % T/C
# Test: Anticancer human tumor OVCAR-5 cell line growth inhibition [Asc];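 also: spheroids exposed to agents for 7 days before readout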;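 as to viability, T/C: 100% = DMSO vehicle-treated wells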
# Settings: for IC50: curve of first compound; for viability, T/C: stronger effect = lower value
# Outline: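 Tumor cells were grown as multicellular spheroids with stromal HUVEC and mesenchymal stem cells and treated singly or in combination. Concentrations fell in half-log steps from the clinical Cmax, or from 10 microM where none was known.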
structure (smiles),measurement,setting,value
CCN1CCN(Cc2ccc(Nc3ncc(F)c(-c4cc(F)c5nc(C)n(C(C)C)c5c4)n3)nc2)CC1 + CNC(C)C(=O)NC1CN(S(=O)(=O)c2cccc(S(=O)(=O)N3CCC4CCC(C(=O)NC(c5ccccc5)c5ccccc5)N4C(=O)C(NC(=O)C(C)NC)C3)c2)CCC2CCC(C(=O)NC(c3ccccc3)c3ccccc3)N2C1=O,IC50,second compound 0.01 µM,> 1000 nM
same,IC50,second compound 0.0316 µM,> 1000 nM
same,IC50,second compound 0.1 µM,> 1000 nM
same,IC50,second compound 0.316 µM,642 nM
same,IC50,second compound 1 µM,> 1000 nM
same,"viability, T/C","second compound 0.01 µM, first compound 0.00316 µM",87.1%
same,"viability, T/C","second compound 0.01 µM, first compound 0.01 µM",83.2%
same,"viability, T/C","second compound 0.01 µM, first compound 0.0316 µM",67.7%
same,"viability, T/C","second compound 0.01 µM, first compound 0.1 µM",59.5%
same,"viability, T/C","second compound 0.01 µM, first compound 0.316 µM",62.7%
same,"viability, T/C","second compound 0.01 µM, first compound 1 µM",49.9%
same,"viability, T/C","second compound 0.0316 µM, first compound 0.00316 µM",76%
same,"viability, T/C","second compound 0.0316 µM, first compound 0.01 µM",71.9%
same,"viability, T/C","second compound 0.0316 µM, first compound 0.0316 µM",58.4%
same,"viability, T/C","second compound 0.0316 µM, first compound 0.1 µM",55.2%
same,"viability, T/C","second compound 0.0316 µM, first compound 0.316 µM",57.2%
same,"viability, T/C","second compound 0.0316 µM, first compound 1 µM",49.3%
same,"viability, T/C","second compound 0.1 µM, first compound 0.00316 µM",76.8%
same,"viability, T/C","second compound 0.1 µM, first compound 0.01 µM",67.2%
same,"viability, T/C","second compound 0.1 µM, first compound 0.0316 µM",55.4%
same,"viability, T/C","second compound 0.1 µM, first compound 0.1 µM",50%
same,"viability, T/C","second compound 0.1 µM, first compound 0.316 µM",55%
same,"viability, T/C","second compound 0.1 µM, first compound 1 µM",47%
same,"viability, T/C","second compound 0.316 µM, first compound 0.00316 µM",69.3%
same,"viability, T/C","second compound 0.316 µM, first compound 0.01 µM",70.3%
same,"viability, T/C","second compound 0.316 µM, first compound 0.0316 µM",59%
same,"viability, T/C","second compound 0.316 µM, first compound 0.1 µM",54.8%
same,"viability, T/C","second compound 0.316 µM, first compound 0.316 µM",52%
same,"viability, T/C","second compound 0.316 µM, first compound 1 µM",49.4%
same,"viability, T/C","second compound 1 µM, first compound 0.00316 µM",76.8%
same,"viability, T/C","second compound 1 µM, first compound 0.01 µM",65.3%
same,"viability, T/C","second compound 1 µM, first compound 0.0316 µM",65.9%
same,"viability, T/C","second compound 1 µM, first compound 0.1 µM",58.9%
same,"viability, T/C","second compound 1 µM, first compound 0.316 µM",51.9%
same,"viability, T/C","second compound 1 µM, first compound 1 µM",51.5%
